Data published in patent publication US20160361340A1, “TREATMENT OF CARDIAC DISEASES WITH MODULATORS OF THE HIPPO PATHWAY” (INSTITUT PASTEUR, priority 2014, published 2016).

Tests used:
Type in all cases: cell-based, rat
Details in all cases: primary cultures of cardiomyocytes
Amotl1 = experiment: RT-qPCR control of RNA interference efficiency, Amotl1
Description: (§1) cDNAs were reverse transcribed from RNAs extracted in TRIzol from cell cultures and isolated hearts using the Quanti-Tect kit (Qiagen) and Superscript II Reverse Transcriptase (Life Technologies) respectively. Quantitative PCR was carried out on a StepOne System (Life Technologies) using Fast Start SYBR Green Master (Roche). Quantification of gene expression was calculated as R=2^ΔCt(control-target), with Gapdh used as a control. Primers were designed using the NCBI Primer-BLAST software. Primer sequences are listed in Supplementary Table 1.
(§2) Primary cultures of newborn rat cardiomyocytes, performed as previously described^34, were transfected with siRNA at 10 pM using Lipofectamine RNAiMax with silencer-siRNA at 24 h and analysed at 72 h, or 96 h (FIG. 3c). Control (Ambion 4390843), Fat4 (siRNA-1: Ambion s172170, siRNA-2: […], siRNA-3 […]), Amotl1 (siRNA-1: […], siRNA-2: […], siRNA-3: […]), Yap1 (siRNA-1: Ambion s170200, siRNA-2: […], siRNA-3: […]) siRNA were used. Efficiency of the interference was controlled by RT-qPCR. In the figures, Fat4 siRNA is Fat4-siRNA-1, Yap1 siRNA is a pool of siRNA-1 to 3 and Amotl1 siRNA is a pool of siRNA-1 to 3.

Fat4 = experiment: RT-qPCR control of RNA interference efficiency, Fat4
Description: as §1, §2

Yap1 = experiment: RT-qPCR control of RNA interference efficiency, Yap1
Description: as §1, §2

“Amotl1 siRNA-2: siRNA against rat Amotl1, GAGUAUCUCAGAGGCCUAUTT (chemistry not given here)” was tested, and the “down-regulation of Amotl1 relative to Gapdh transcripts” value (Amotl1) was “Efficient down-regulation”.

For “Amotl1 siRNA-3: siRNA against rat Amotl1, CAUCACAUGUCCCAGAAUATT (chemistry not given here)”, the “down-regulation of Amotl1 relative to Gapdh transcripts” value (Amotl1) was “Efficient down-regulation”.

In the case of “Amotl siRNA-1: siRNA against rat Amotl1, AUCUCUACCAUUUGUUGGGTT (chemistry not given here)”, the “down-regulation of Amotl1 relative to Gapdh transcripts” value (Amotl1) is reported as “Efficient down-regulation”.

“Fat4 siRNA-2: siRNA against rat Fat4, CCUGUACCCUGAGUAUUGATT (chemistry not given here)” was tested, and the “down-regulation of Fat4 relative to Gapdh transcripts” value (Fat4) was “Efficient down-regulation”.

“Fat4 siRNA-3: siRNA against rat Fat4, CCGUCCUUGUGUUUAACGUTT (chemistry not given here)” was tested, and the “down-regulation of Fat4 relative to Gapdh transcripts” value (Fat4) was “Efficient down-regulation”.

“Yap1 siRNA-2: siRNA against rat Yap1, GUCAGAGAUACUUCUUAAATT (chemistry not given here)” was tested, and the “down-regulation of Yap1 relative to Gapdh transcripts” value (Yap1) was “Efficient down-regulation”.

“Yap1 siRNA-3: siRNA against rat Yap1, GGAGAAGUUUACUACAUAATT (chemistry not given here)” was tested, and the “down-regulation of Yap1 relative to Gapdh transcripts” value (Yap1) was “Efficient down-regulation”.
